These results are taken from patent US20240190855A1 (Relay Therapeutics, Inc., priority 2021, published 2024).

The target in the first experiment is T1, CDK2/Cyclin E complex (Homo sapiens, UniProt P24941).
T1 construct: purchased Eurofins 14-475
Put plainly: CDK2/Cyclin E fluorescence-based microfluidic mobility shift assay (CDK2 Biochemical Caliper Assay). Conditions: read-out: Biochemical CDK2/CyclinE Caliper IC50. The method, boiled down: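 Wild-type CDK2/Cyclin E was preincubated with compound and ATP for 30 min at RT before the 5-FAM-QSPKKG peptide was added. Final concentrations were 0.1 nM enzyme, 2000 uM ATP, 1.5 uM peptide and 1% DMSO. After 20 hr at RT and EDTA stop, substrate conversion was read by microfluidic mobility shift over an 11-point, 3-fold dilution series.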
With `Cc1cc(CC(=O)Nc2cc([C@H]3CC[C@@H](NC(=O)NC(C)C)C3)[nH]n2)on1` (single isomer, unassigned) [Example 83], the IC50 lay within 1000 to 100000 nM.
For `Cc1cc(CC(=O)Nc2cc([C@H]3CC[C@@H](N4CC(C)(C)NC4=O)C3)[nH]n2)on1` (single isomer, unassigned) [Example 91], the IC50 is at most 100 nM.
As for `Cc1cc(CC(=O)Nc2cc([C@@H]3CC[C@H](NC(=O)NC(C)C)C3)[nH]n2)on1` (single isomer, unassigned) [Example 102], the IC50 is 1000 to 100000 nM.
In the case of `Cc1cc(CC(=O)Nc2cc([C@H]3CC[C@@H](N4CC(C)(C)NC4=O)C3)[nH]n2)on1` (single isomer, unassigned) [Example 117], the IC50 was at most 100 nM.
As to `Cc1cc(CC(=O)Nc2cc([C@H]3CC[C@@H](Oc4nnccc4C)C3)[nH]n2)on1` (single isomer, unassigned) [Example 119], the IC50 is at most 100 nM.
Consider `CC(C)NC(=O)O[C@@H]1CC[C@H](c2cc(NC(=O)c3ccnn3C)n[nH]2)C1` [Example 5], for which the IC50 is at most 100 nM.
Same read-out and setting: the value for `CC(C)NC(=O)O[C@H]1CC[C@@H](c2cc(NC(=O)c3ccnn3C)n[nH]2)C1` [Example 6] was at most 100 nM; that for `CC1(NC(=O)O[C@@H]2CC[C@H](c3cc(NC(=O)Cc4ccccc4)n[nH]3)C2)CC1` [Example 7] was at most 100 nM.
Take `COCc1cc(C(=O)Nc2cc([C@@H]3CC[C@H](OC(=O)N(C)C(C)C)C3)[nH]n2)n(C)n1` [Example 8]: the IC50 was at most 100 nM.
In the case of `CC1(NC(=O)O[C@H]2CC[C@@H](c3cc(NC(=O)Cc4ccccc4)n[nH]3)C2)CC1` [Example 9], the IC50 was at most 100 nM.
Regarding `CC(C)NC(=O)O[C@@H]1CC[C@H](c2cc(NC(=O)Cc3ccccc3)n[nH]2)C1` [Example 12], the IC50 is at most 100 nM.
On the same count and under the same terms, the value for `CC(C)NC(=O)O[C@@H]1CC[C@H](c2cc(NC(=O)c3ccnc4ncsc34)n[nH]2)C1` [Example 13] was at most 100 nM; that for `CC(C)NC(=O)O[C@@H]1CC[C@H](c2cc(NC(=O)Cc3ccccc3S(C)(=O)=O)n[nH]2)C1` [Example 14] was at most 100 nM.
On to `Cc1cc(C(=O)Nc2cc([C@H]3CC[C@@H](OC(=O)NC(C)C)C3)[nH]n2)on1` [Example 17], for which the IC50 is at most 100 nM.
In the case of `CC(C)NC(=O)O[C@@H]1CC[C@H](c2cc(NC(=O)Cc3ccnn3C)n[nH]2)C1` [Example 18], the IC50 is at most 100 nM.
Consider `CC(C)NC(=O)O[C@@H]1CC[C@H](c2cc(NC(=O)c3c[n+](C(C)(C)C)nn3C)n[nH]2)C1` [Example 19], for which the IC50 was 250 to 1000 nM.
As for `Cc1cc(CC(=O)Nc2cc([C@H]3CC[C@@H](OC(=O)NCCC(C)(C)O)C3)[nH]n2)on1` [Example 23], the IC50 is 100 to 250 nM.
For `CC(C)NC(=O)O[C@@H]1CC[C@H](c2cc(NC(=O)Cn3nnc4ccccc4c3=O)n[nH]2)C1` [Example 41], the IC50 was at most 100 nM.
As for `CNC(=O)O[C@@H]1CC[C@H](c2cc(NC(=O)Cc3cc(C)no3)n[nH]2)C1` [Example 42], the IC50 lay in the range of 100 to 250 nM.
On the same count and under the same terms, as for `Cc1cc(CC(=O)Nc2cc([C@H]3CC[C@@H](C(=O)NC(C)C)CC3)[nH]n2)on1` [Example 55], the figure is 1000 to 100000 nM; as for `Cc1cc(CC(=O)Nc2cc([C@H]3CC[C@H](C(=O)NC(C)C)CC3)[nH]n2)on1` [Example 56], 1000 to 100000 nM; as for `CC(C)NC(=O)O[C@@H]1CC[C@H](c2cc(NC(=O)Cc3cnc4ncnn4c3)n[nH]2)C1` [Example 107], 250 to 1000 nM.
Take `Cc1cc(CC(=O)Nc2cc([C@H]3C[C@@H](OC(=O)NC(C)C)C3)[nH]n2)on1` [Example 110]: the IC50 was at most 100 nM.
Turning to `CCC(=O)O[C@@H]1CC[C@H](c2cc(NC(=O)Cc3cc(C)no3)n[nH]2)C1` [Example 115], the IC50 lay in the range of 100 to 250 nM.
Turning to `Cc1cc(CC(=O)Nc2cc([C@H]3CC[C@@H](OC(=O)NC(C)C)CC3)[nH]n2)on1` [Example 116], the IC50 was at most 100 nM.

The target in a further experiment is target tagged with nanoLuciferase in 293-NB2 cells (Homo sapiens, UniProt P24941). Put plainly: nanoBRET TE Intracellular Kinase Assay (Cell nanoBRET Assay). Format: cell-based.
Conditions: not given
The method, then:
Compounds described herein were also tested in a nanoBRET TE Intracellular Kinase Assay. Test compounds were prepared in a DMSO stock solution. 45 uL of stock solution was transferred to a 384 well plate (Greiner, 781201), and a 3-fold 11-point dilution was performed. 293-NB2 cells expressing target tagged with nanoLuciferase were diluted in cell growth media (DMEM+10% FBS+1% Pen/Strep media) and a 40 uL cell solution of 7.5E4 cells/mL was seeded in a separate 384 well cell culture plate and incubated overnight at 37° C./5% CO2/100% humidity. […] 80 nL of each concentration of compound was transferred from the compound plate to a corresponding well in the cell culture plate by Echo550 liquid handler. The plates were incubated for 2 hrs at 37° C./5% CO2/100% humidity. […] Chemiluminescence was then read on an EnVision reader (PerkinElmer).
Regarding `Cc1cc(CC(=O)Nc2cc([C@H]3CC[C@@H](NC(=O)NC(C)C)C3)[nH]n2)on1` (single isomer, unassigned) [Example 83], the IC50 lay within 1000 to 100000 nM.
Molecule `Cc1cc(CC(=O)Nc2cc([C@H]3CC[C@@H](N4CC(C)(C)NC4=O)C3)[nH]n2)on1` (single isomer, unassigned) [Example 91] came in with an IC50 of 1000 to 100000 nM.
In turn, `Cc1cc(CC(=O)Nc2cc([C@@H]3CC[C@H](NC(=O)NC(C)C)C3)[nH]n2)on1` (single isomer, unassigned) [Example 102] displayed an IC50 of 1000 to 100000 nM.
Same read-out and setting: the value for `Cc1cc(CC(=O)Nc2cc([C@H]3CC[C@@H](N4CC(C)(C)NC4=O)C3)[nH]n2)on1` (single isomer, unassigned) [Example 117] was 1000 to 100000 nM; that for `Cc1cc(CC(=O)Nc2cc([C@H]3CC[C@@H](Oc4nnccc4C)C3)[nH]n2)on1` (single isomer, unassigned) [Example 119] was 250 to 1000 nM; that for `CC(C)NC(=O)O[C@@H]1CC[C@H](c2cc(NC(=O)c3ccnn3C)n[nH]2)C1` [Example 5] was at most 100 nM.
On the same count and under the same terms, as for `CC(C)NC(=O)O[C@H]1CC[C@@H](c2cc(NC(=O)c3ccnn3C)n[nH]2)C1` [Example 6], the figure is 100 to 250 nM; as for `CC1(NC(=O)O[C@@H]2CC[C@H](c3cc(NC(=O)Cc4ccccc4)n[nH]3)C2)CC1` [Example 7], at most 100 nM; as for `COCc1cc(C(=O)Nc2cc([C@@H]3CC[C@H](OC(=O)N(C)C(C)C)C3)[nH]n2)n(C)n1` [Example 8], 100 to 250 nM.
In turn, `CC1(NC(=O)O[C@H]2CC[C@@H](c3cc(NC(=O)Cc4ccccc4)n[nH]3)C2)CC1` [Example 9] came in with an IC50 of at most 100 nM.
`CC(C)NC(=O)O[C@@H]1CC[C@H](c2cc(NC(=O)Cc3ccccc3)n[nH]2)C1` [Example 12] gave an IC50 of 100 to 250 nM.
On the same count and under the same terms, the value for `CC(C)NC(=O)O[C@@H]1CC[C@H](c2cc(NC(=O)c3ccnc4ncsc34)n[nH]2)C1` [Example 13] was at most 100 nM.
As to `CC(C)NC(=O)O[C@@H]1CC[C@H](c2cc(NC(=O)Cc3ccccc3S(C)(=O)=O)n[nH]2)C1` [Example 14], the IC50 lay within 100 to 250 nM.
Take `Cc1cc(C(=O)Nc2cc([C@H]3CC[C@@H](OC(=O)NC(C)C)C3)[nH]n2)on1` [Example 17]: the IC50 fell in the range of 1000 to 100000 nM.
The molecule `CC(C)NC(=O)O[C@@H]1CC[C@H](c2cc(NC(=O)Cc3ccnn3C)n[nH]2)C1` [Example 18] registered an IC50 of 250 to 1000 nM.
Regarding `CC(C)NC(=O)O[C@@H]1CC[C@H](c2cc(NC(=O)c3c[n+](C(C)(C)C)nn3C)n[nH]2)C1` [Example 19], the IC50 lay in the range of 1000 to 100000 nM.
On to `Cc1cc(CC(=O)Nc2cc([C@H]3CC[C@@H](OC(=O)NCCC(C)(C)O)C3)[nH]n2)on1` [Example 23], for which the IC50 lay in the range of 1000 to 100000 nM.
In the case of `CC(C)NC(=O)O[C@@H]1CC[C@H](c2cc(NC(=O)Cn3nnc4ccccc4c3=O)n[nH]2)C1` [Example 41], the IC50 lay within 1000 to 100000 nM.
With `CNC(=O)O[C@@H]1CC[C@H](c2cc(NC(=O)Cc3cc(C)no3)n[nH]2)C1` [Example 42], the IC50 lay in the range of 1000 to 100000 nM.
Turning to `Cc1cc(CC(=O)Nc2cc([C@H]3CC[C@@H](C(=O)NC(C)C)CC3)[nH]n2)on1` [Example 55], the IC50 lay in the range of 1000 to 100000 nM.
For `Cc1cc(CC(=O)Nc2cc([C@H]3CC[C@H](C(=O)NC(C)C)CC3)[nH]n2)on1` [Example 56], the IC50 was 1000 to 100000 nM.
The molecule `CC(C)NC(=O)O[C@@H]1CC[C@H](c2cc(NC(=O)Cc3cnc4ncnn4c3)n[nH]2)C1` [Example 107] yielded an IC50 of 1000 to 100000 nM.
The same measure, in the same setting: as for `Cc1cc(CC(=O)Nc2cc([C@H]3C[C@@H](OC(=O)NC(C)C)C3)[nH]n2)on1` [Example 110], the figure is 1000 to 100000 nM.
As to `CCC(=O)O[C@@H]1CC[C@H](c2cc(NC(=O)Cc3cc(C)no3)n[nH]2)C1` [Example 115], the IC50 fell in the range of 1000 to 100000 nM.
`Cc1cc(CC(=O)Nc2cc([C@H]3CC[C@@H](OC(=O)NC(C)C)CC3)[nH]n2)on1` [Example 116] returned an IC50 of 250 to 1000 nM.
